Test system: P. falciparum (NF54 or 3D7 strain)
Test: Assay for P. falciparum proliferation in infected human blood cells (SYBR Green)
Type: cell-based, Plasmodium falciparum
Conditions: Plasmodium falciparum, Erythrocyte, 72 h, NF54 or 3D7 infected human erythrocytes, 72 hours; read-out: EC50 (nM), inhibitory efficacy in delaying P. falciparum proliferation in infected human blood cells
How it was run: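 Infected erythrocytes (NF54 or 3D7; final 2.5% hematocrit, 0.3% parasitemia) were incubated with compounds for 72 h at 37 °C in low oxygen (3% O2, 4% CO2, 93% N2).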

SMILES | EC50
CN(C(=O)c1cn2c(-c3ccc(C(F)(F)F)cc3)cnc2cn1)c1nccs1 [Compound 356, N-methyl-N-(1,3-thiazol-2-yl)-3-[4-(trifluoromethyl)phenyl]imidazo[1,2-a]pyrazine-6-carboxamide] | 6680 nM
CN(C(=O)c1cn2c(-c3ccc(C(F)(F)F)cc3)cnc2cn1)c1cccnc1 [Compound 326, N-methyl-N-(pyridin-3-yl)-3-[4-(trifluoromethyl)phenyl]imidazo[1,2-a]pyrazine-6-carboxamide] | 2090 nM
CN(C(=O)c1cn2c(-c3ccc(NC(=O)C(N)C4CC4)cc3)cnc2cn1)c1ccc(C#N)cc1 (stereo in doubt) [Compound 292, 3-{4-[(2S)-2-amino-2-cyclopropylacetamido]phenyl}-N-(4-cyanophenyl)-N-methylimidazo[1,2-a]pyrazine-6-carboxamide] | 304 nM
COC(=O)Nc1ccc(-c2cnc3cnc(C(=O)N(C)c4ccc(C)cn4)cn23)cn1 [Compound 415, methyl N-(5-{6-[methyl(5-methylpyridin-2-yl)carbamoyl]imidazo[1,2-a]pyrazin-3-yl}pyridin-2-yl)carbamate] | > 10000 nM
CC1CCN(c2nc(-c3cnc4cnc(C(=O)N(C)c5ccc(C#N)cc5)cn34)cs2)CC1 [Compound 198, N-(4-cyanophenyl)-N-methyl-3-[2-(4-methylpiperidin-1-yl)-1,3-thiazol-4-yl]imidazo[1,2-a]pyrazine-6-carboxamide] | > 10000 nM
CN(C(=O)c1cn2c(-c3ccc(C(F)(F)F)cc3)cnc2cn1)c1ccc(F)cn1 [Compound 63, N-(5-fluoropyridin-2-yl)-N-methyl-3-[4-(trifluoromethyl)phenyl]imidazo[1,2-a]pyrazine-6-carboxamide] | 387 nM
COc1cccc(N(C)C(=O)c2cn3c(-c4ccc(C(F)(F)F)cc4)cnc3cn2)c1 [Compound 440, N-(3-methoxyphenyl)-N-methyl-3-[4-(trifluoromethyl)phenyl]imidazo[1,2-a]pyrazine-6-carboxamide] | 140 nM
CN(C(=O)c1cn2c(-c3cnc(N)nc3)cnc2cn1)c1ccc(C#N)cc1 [Compound 380, 3-(2-aminopyrimidin-5-yl)-N-(4-cyanophenyl)-N-methylimidazo[1,2-a]pyrazine-6-carboxamide] | 4500 nM
CN(C(=O)c1cn2c(-c3ccc(C(F)(F)F)cc3)cnc2cn1)c1ccc(-c2cnn(C)c2)cc1 [Compound 51, N-methyl-N-[4-(1-methyl-1H-pyrazol-4-yl)phenyl]-3-[4-(trifluoromethyl)phenyl]imidazo[1,2-a]pyrazine-6-carboxamide] | > 9720 nM
CN(C(=O)c1cn2c(-c3ccc(C(F)(F)F)cc3)cnc2cn1)c1ncccc1F [Compound 221, N-(3-fluoropyridin-2-yl)-N-methyl-3-[4-(trifluoromethyl)phenyl]imidazo[1,2-a]pyrazine-6-carboxamide] | 4970 nM
N#Cc1ccc(N(CCC2CCOCC2)C(=O)c2cn3c(-c4ccc(C(F)(F)F)cc4)cnc3cn2)cc1 [Compound 133, N-(4-cyanophenyl)-N-[2-(oxan-4-yl)ethyl]-3-[4-(trifluoromethyl)phenyl]imidazo[1,2-a]pyrazine-6-carboxamide] | 338 nM
Cc1ccc(N(C)C(=O)c2cn3c(-c4ccc(C(F)(F)F)cc4)cnc3cn2)cn1 [Compound 277, N-methyl-N-(6-methylpyridin-3-yl)-3-[4-(trifluoromethyl)phenyl]imidazo[1,2-a]pyrazine-6-carboxamide] | 1130 nM
COc1cncc(-c2cnc3cnc(C(=O)N(C)c4ccc(C#N)cc4)cn23)n1 [Compound 335, N-(4-cyanophenyl)-3-(6-methoxypyrazin-2-yl)-N-methylimidazo[1,2-a]pyrazine-6-carboxamide] | 5340 nM
CN(Cc1cn2c(-c3ccc(OC(F)F)cc3)cnc2cn1)c1ccc(Cl)cc1 [Compound 64, 4-chloro-N-({3-[4-(difluoromethoxy)phenyl]imidazo[1,2-a]pyrazin-6-yl}methyl)-N-methylaniline] | 116 nM
CN(C(=O)c1cn2c(-c3ccc4[nH]ncc4c3)cnc2cn1)c1ccc(C#N)cc1 [Compound 145, N-(4-cyanophenyl)-3-(1H-indazol-5-yl)-N-methylimidazo[1,2-a]pyrazine-6-carboxamide] | 648 nM
COc1ccc(-c2cnc3cnc(C(=O)N(C)c4ccc(Cl)cc4)cn23)cc1 [Compound 219, N-(4-chlorophenyl)-3-(4-methoxyphenyl)-N-methylimidazo[1,2-a]pyrazine-6-carboxamide] | 63 nM
CN(c1cn2c(-c3ccc(C(F)(F)F)cc3)cnc2cn1)S(=O)(=O)c1ccc(C#N)cc1 [Compound 347, 4-cyano-N-methyl-N-{3-[4-(trifluoromethyl)phenyl]imidazo[1,2-a]pyrazin-6-yl}benzene-1-sulfonamide] | 3260 nM
CN(C(=O)c1cn2c(-c3ccc(C(F)(F)F)cc3)cnc2cn1)c1ccccc1Cl [Compound 73, N-(2-chlorophenyl)-N-methyl-3-[4-(trifluoromethyl)phenyl]imidazo[1,2-a]pyrazine-6-carboxamide] | 624 nM
CN(Cc1cn2c(-c3ccc(-n4cccn4)cc3)cnc2cn1)c1ccc(Cl)cc1 [Compound 9, N-((3-(4-(1H-pyrazol-1-yl)phenyl)imidazo[1,2-a]pyrazin-6-yl)methyl)-4-chloro-N-methylaniline] | 218 nM
Cc1cc(C)n(-c2ccc(-c3cnc4cnc(C(=O)N(C)c5ccc(C#N)cc5)cn34)cc2)n1 [Compound 160, N-(4-cyanophenyl)-3-[4-(3,5-dimethyl-1H-pyrazol-1-yl)phenyl]-N-methylimidazo[1,2-a]pyrazine-6-carboxamide] | 1750 nM
N#Cc1ccc2c(c1)CCCN2C(=O)c1cn2c(-c3ccc(C(F)(F)F)cc3)cnc2cn1 [Compound 274, 1-({3-[4-(trifluoromethyl)phenyl]imidazo[1,2-a]pyrazin-6-yl}carbonyl)-1,2,3,4-tetrahydroquinoline-6-carbonitrile] | 224 nM
CN(C)c1cccc(-c2cnc3cnc(C(=O)N(C)c4ccc(C#N)cc4)cn23)c1 [Compound 438, N-(4-cyanophenyl)-3-[3-(dimethylamino)phenyl]-N-methylimidazo[1,2-a]pyrazine-6-carboxamide] | > 10000 nM
CN(C(=O)c1cn2c(-c3ccc(C(F)(F)F)cc3)cnc2cn1)c1ccnc(C(F)(F)F)c1 [Compound 329, N-methyl-3-[4-(trifluoromethyl)phenyl]-N-[2-(trifluoromethyl)pyridin-4-yl]imidazo[1,2-a]pyrazine-6-carboxamide] | 2760 nM
Cc1ccc(C(=O)N(C)c2cn3c(-c4ccc(C(F)(F)F)cc4)cnc3cn2)cc1 [Compound 289, N,4-dimethyl-N-{3-[4-(trifluoromethyl)phenyl]imidazo[1,2-a]pyrazin-6-yl}benzamide] | 1500 nM
CN(C(=O)c1cn2c(-c3ccc(Cl)cc3C(F)(F)F)cnc2cn1)c1ccc(C#N)cc1 [Compound 179, 3-[4-chloro-2-(trifluoromethyl)phenyl]-N-(4-cyanophenyl)-N-methylimidazo[1,2-a]pyrazine-6-carboxamide] | 4400 nM
CN(Cc1ccc(F)cc1)C(=O)c1cn2c(-c3ccc(C(F)(F)F)cc3)cnc2cn1 [Compound 192, N-[(4-fluorophenyl)methyl]-N-methyl-3-[4-(trifluoromethyl)phenyl]imidazo[1,2-a]pyrazine-6-carboxamide] | 7390 nM
